Like-named read-outs stand apart in the source and are kept apart here.
What was measured:
cancer cells = assay: MTS cell growth inhibition assay (72 hours); format: cell-based
Outline: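 Growth inhibition read as formazan absorbance at 492 nm after 4 h MTS/PMS, following 72 h compound exposure at 37 °C in 1% FBS DMEM (cells pre-seeded 18 h). IC50 = 50% absorbance reduction; inhibition graded in bands.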

FGFR2 (N549H) = biological target: T1, FGFR2 (N549H) (Homo sapiens, UniProt P21802, N549H); assay: fluorescent ELISA assay for inhibitors of FGFR2 kinase; format: biochemical; conditions: Pyk2 peptide substrate, 60 minutes
T1 construct: purchased Millipore 14-742
Outline: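 FGFR2 enzyme (0.5 μM) phosphorylates biotinylated Pyk2 peptide (37 μM) with 12.5 μM ATP added, in Tris-HCl buffer containing 10 mM MgCl2, 2 mM DTT and 75 μM ATP, for 60 min. Peptide captured on streptavidin 30 min at room temperature; phosphotyrosine detected by antibody, alkaline phosphatase secondary and Attophos fluorescence (ex 400/em 595 nm). Inhibition seen as signal decrease.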

[1] = Homo sapiens, DLD-1, 72 h, DLD-1 cells, read-out: DLD-1 MTS 72 hr at 10 μM
[2] = Homo sapiens, KATO III, 72 h, KATO III cells, read-out: KATO III MTS 72 hr at 10 μM
[3] = Homo sapiens, MDA-MB-231, 72 h, MDA-MB-231 cells, read-out: MDA-MB-231 MTS 72 hr at 10 μM
[4] = Homo sapiens, NCI-H1299, 72 h, NCI-H1299 cells, read-out: NCI-H1299 MTS 72 hr at 10 μM
[5] = PaCa-2, 72 h, PACA-2 cells, read-out: PACA-2 MTS 72 hr at 10 μM

T1 sequence (P21802 22-821 N549H): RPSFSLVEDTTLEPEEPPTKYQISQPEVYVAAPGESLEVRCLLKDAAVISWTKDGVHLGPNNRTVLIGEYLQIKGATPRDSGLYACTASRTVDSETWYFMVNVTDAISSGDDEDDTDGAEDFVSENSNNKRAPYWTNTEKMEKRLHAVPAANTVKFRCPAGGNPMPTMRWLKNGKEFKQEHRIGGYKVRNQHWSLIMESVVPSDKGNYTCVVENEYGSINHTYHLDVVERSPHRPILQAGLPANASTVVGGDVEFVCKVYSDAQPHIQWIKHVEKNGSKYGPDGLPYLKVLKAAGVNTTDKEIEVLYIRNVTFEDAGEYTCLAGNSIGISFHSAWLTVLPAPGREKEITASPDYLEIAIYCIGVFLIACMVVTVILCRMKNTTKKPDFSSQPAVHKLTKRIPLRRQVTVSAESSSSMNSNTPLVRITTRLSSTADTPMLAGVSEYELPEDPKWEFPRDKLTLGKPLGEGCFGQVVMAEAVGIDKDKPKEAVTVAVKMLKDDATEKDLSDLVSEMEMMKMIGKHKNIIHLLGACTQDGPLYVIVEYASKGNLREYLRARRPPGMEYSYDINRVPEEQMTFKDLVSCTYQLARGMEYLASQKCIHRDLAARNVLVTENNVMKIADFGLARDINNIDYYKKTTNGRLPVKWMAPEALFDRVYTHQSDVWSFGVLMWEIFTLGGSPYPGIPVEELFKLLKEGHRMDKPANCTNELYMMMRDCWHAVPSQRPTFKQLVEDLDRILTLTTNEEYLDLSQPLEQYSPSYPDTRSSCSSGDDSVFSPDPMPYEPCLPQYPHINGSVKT

SMILES | melting point [°C] | IC50 (FGFR2 (N549H)) [µM] | inhibition at 10 µM (cancer cells; [1]) [%] | inhibition at 10 µM (cancer cells; [2]) [%] | inhibition at 10 µM (cancer cells; [3]) [%] | inhibition at 10 µM (cancer cells; [4]) [%] | inhibition at 10 µM (cancer cells; [5]) [%]
Nc1nc(N[C@@H]2Cc3ccccc3N(Cc3ccc(F)cc3)C2)c2cn[nH]c2n1 [Compound 9, (R)—N4-(1-(4-fluorobenzyl)-1,2,3,4-tetrahydroquinolin-3-yl)-1H-pyrazolo[3,4-d]pyrimidine-4,6-diamine] | 140 to 143 | 0.22 | 50 to 79 | > 79 | < 50 | 50 to 79 | 50 to 79
Nc1nc(NC2Cc3ccccc3N(Cc3cccc(-c4ccccc4)c3)C2)c2cn[nH]c2n1 (centres unmarked) [Compound 224, N4-(1-(biphenyl-3-ylmethyl)-1,2,3,4-tetrahydroquinolin-3-yl)-1H-pyrazolo[3,4-d]pyrimidine-4,6-diamine] | 128 to 132 | 19.3 | > 79 | > 79 | < 50 | > 79 | > 79
Nc1nc(NC2Cc3ccccc3N(C(=O)c3ccccc3)C2)c2cn[nH]c2n1 (centres unmarked) [Compound 12, (3-(6-amino-1H-pyrazolo[3,4-d]pyrimidin-4-ylamino)-3,4-dihydroquinolin-1(2H)-yl)(phenyl)methanone] | 155 to 164 | 21 | < 50 | < 50 | < 50 | < 50 | < 50
Nc1nc(NC2Cc3ccccc3N(c3ccccc3)C2)c2cn[nH]c2n1 (centres unmarked) [Compound 11, N^4-(1-phenyl-1,2,3,4-tetrahydroquinolin-3-yl)-1H-pyrazolo[3,4-d]pyrimidine-4,6-diamine] | 88 to 92 | 2.08 | < 50 | < 50 | < 50 | < 50 | < 50
Nc1nc(NC2Cc3ccccc3N(CCc3ccccc3)C2)c2cn[nH]c2n1 (centres unmarked) [Compound 2, N^4-(1-(2-phenylethyl)-1,2,3,4-tetrahydroquinolin-3-yl)-1H-pyrazolo[3,4-d]pyrimidine-4,6-diamine] | 117 to 122 | 0.17 | 50 to 79 | 50 to 79 | < 50 | 50 to 79 | < 50
Nc1nc(N[C@H]2Cc3ccccc3N(Cc3ccc(F)cc3)C2)c2cn[nH]c2n1 [Compound 8, N^4-((3S)-1-(4-fluorobenzyl)-1,2,3,4-tetrahydroquinolin-3-yl)-1H-pyrazolo[3,4-d]pyrimidine-4,6-diamine] | 78 to 80 | 11 | > 79 | > 79 | < 50 | < 50 | < 50
Nc1nc(NC2Cc3ccccc3N(S(=O)(=O)c3ccccc3)C2)c2cn[nH]c2n1 (centres unmarked) [Compound 25, N4-(1-(phenylsulfonyl)-1,2,3,4-tetrahydroquinolin-3-yl)-1H-pyrazolo[3,4-d]pyrimidine-4,6-diamine] | – | 0.34 | < 50 | < 50 | < 50 | < 50 | < 50
Nc1nc(NC2Cc3ccccc3N(Cc3cccc(C(F)(F)F)c3)C2)c2cn[nH]c2n1 (centres unmarked) [Compound 5, N^4-(1-(3-(trifluoromethyl)benzyl)-1,2,3,4-tetrahydroquinolin-3-yl)-1H-pyrazolo[3,4-d]pyrimidine-4,6-diamine] | 89 to 94 | 10.7 | < 50 | 50 to 79 | < 50 | < 50 | < 50
Cc1ccccc1CN1CC(Nc2nc(N)nc3[nH]ncc23)Cc2ccccc21 (centres unmarked) [Compound 129, N4-[1-(2-methylbenzyl)-1,2,3,4-tetrahydroquinolin-3-yl]-1H-pyrazolo[3,4-d]pyrimidine-4,6-diamine] | – | 16.2 | < 50 | 50 to 79 | < 50 | < 50 | < 50

More lines, main results first:

melting point [°C] | IC50 (FGFR2 (N549H)) [µM] | SMILES | inhibition at 10 µM (cancer cells; [1]) [%] | inhibition at 10 µM (cancer cells; [2]) [%] | inhibition at 10 µM (cancer cells; [3]) [%] | inhibition at 10 µM (cancer cells; [4]) [%] | inhibition at 10 µM (cancer cells; [5]) [%]
110 to 114 | 1.81 | Nc1nc(NC2Cc3ccccc3N(Cc3ccc(F)cc3F)C2)c2cn[nH]c2n1 (centres unmarked) [Compound 1, N^4-(1-(2,4-difluorobenzyl)-1,2,3,4-tetrahydroquinolin-3-yl)-1H-pyrazolo[3,4-d]pyrimidine-4,6-diamine] | > 79 | > 79 | < 50 | 50 to 79 | 50 to 79
170 to 174 | 3.06 | Nc1nc(NC2Cc3ccccc3N(Cc3ccc(Cl)cc3Cl)C2)c2cn[nH]c2n1 (centres unmarked) [Compound 4, N^4-(1-(2,4-dichlorobenzyl)-1,2,3,4-tetrahydroquinolin-3-yl)-1H-pyrazolo[3,4-d]pyrimidine-4,6-diamine] | > 79 | > 79 | > 79 | > 79 | > 79
165 to 173 | 17.9 | Nc1nc(NC2Cc3ccccc3N(C(=O)c3ccc(Cl)cc3Cl)C2)c2cn[nH]c2n1 (centres unmarked) [Compound 13, (3-(6-amino-1H-pyrazolo[3,4-d]pyrimidin-4-ylamino)-3,4-dihydroquinolin-1(2H)-yl)(2,4-dichlorophenyl)methanone] | < 50 | < 50 | < 50 | < 50 | < 50
153 to 163 | 0.23 | Nc1nc(NC2Cc3ccccc3N(S(=O)(=O)c3ccc(Cl)cc3Cl)C2)c2cn[nH]c2n1 (centres unmarked) [Compound 14, N^4-(1-(2,4-dichlorophenylsulfonyl)-1,2,3,4-tetrahydroquinolin-3-yl)-1H-pyrazolo[3,4-d]pyrimidine-4,6-diamine] | < 50 | 50 to 79 | < 50 | < 50 | < 50

Reference: patent US8273754B2, “Substituted 1H-pyrazolo[3,4-D]pyrimidine-6-amine compounds” (ArQule, Inc., priority 2008, dated 2012)
